The species named for the assay is Mus musculus. Nature of the assay: Compound was tested for its ability to inhibit mAb (monoclonal antibody) binding to immobilized ova-10d; inhibited the binding of seven of nine mAbs to immobilized ova-10d, A - The IC50 of these seven mAb ranged from 15 to 350 uM. Type of assay: functional, organism-based.

For the compound `COC(=O)C1C(OP(=O)(O)c2ccccc2)CC2CCC1N2C` (stereo unspecified), the IC50 entry was “A”.

The values are drawn from ChEMBL document CHEMBL1127188, “Phenylphosphonate monoester analogs of cocaine. Potential haptens for the generation of catalytic antibodies” (Bioorg Med Chem Lett, 1993).
